Drawing on PubChem BioAssay (NCI), this text covers TGI for ten molecules.

Common to all, as to experiment: NCI anticancer screen, dose series, 48 h
The test system of test [1] is EKVX NSCLC.
Test [2] relates to CAKI-1 renal.
Test [3] has as its system M14 melanoma.
For test [4], the system named is SNB-75 CNS.
Test [5] has as its system SN12C renal.
The subject of test [6] is MALME-3M melanoma.
In test [7] the test system is KM12 colon.
Test [8] relates to K-562 leukemia.
Test [9] concerns SNB-19 CNS.
Test [10] deals with SF-539 CNS.

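Following 48 hours of exposure in 96-well plates, responses at five concentrations were used to interpolate endpoints linearly. TGI denotes the concentration required for complete inhibition of growth.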 A value given as a limit tells only on which side of the number the result lay.

On to `CC(C)(C)[C@H]1CCC2(OCCO2)[C@](O)(CCCO)C1`, for which the TGI in test [1], in test [2], in [3], in test [4], in [5] and in test [6] was over 100 µM throughout. Also, the TGI in test [7], in test [8], in [9] and in test [10] was over 100 µM each time.
Consider `C[C@]1(O)O[C@@H]2OCC[C@@H]2C2=C1C(=O)c1ccccc1C2=O`, for which the TGI in test [1] amounted to 37.1 µM; in test [2], 34.7 µM; in test [3], 24.1 µM; in test [4], 74 µM; in [5], 51.1 µM; in [6] it was 29.5 µM. Also, the TGI in test [7] was 29.8 µM; in test [8] it was 59.5 µM; in test [9], 35.2 µM; in test [10] it was 31.7 µM.
For `N#Cc1nc(CCC(c2nc(C#N)c(N)o2)N2C(=O)c3ccccc3C2=O)oc1N` (stereo not given), the TGI in test [1], in test [2], in test [3], in test [4], in test [5] and in [6] was over 100 µM in each case. Moreover, the TGI in test [7], in test [8], in [9] and in test [10] was over 100 µM each time.
As to `COc1ccc(Oc2nc(C#CC(C)(C)O)nc(Oc3ccc(OC)cc3)n2)cc1`, the TGI in test [1] is 30.7 µM; in [2] it was 12.5 µM; in test [3], 4.24 µM; in test [4], 31.3 µM; in [5], 28.1 µM; in [6], 34.6 µM. Besides, the TGI in test [7] was 29.2 µM; in [8] it was over 100 µM; in [9], 41 µM; in test [10] it was 22.5 µM.
As to `Cc1ccc(C(=O)Nc2ccc(S(=O)(=O)O)c3cc(S(=O)(=O)O)cc(S(=O)(=O)O)c23)cc1NC(=O)c1cccc(NC(=O)Nc2cccc(C(=O)Nc3cc(C(=O)Nc4ccc(S(=O)(=O)O)c5cc(S(=O)(=O)O)cc(S(=O)(=O)O)c45)ccc3C)c2)c1` (tested in a mixture with another compound), the TGI in test [1], in test [2], in test [3], in test [4], in test [5] and in test [6] was over 50 µM in each case. Also, the TGI in [7], in test [8], in [9] and in test [10] was over 50 µM in each case.
For `O=C1ON=C2C3CC4CC12CC1(C3)C(=O)ON=C41`, the TGI in test [1], in test [2], in test [3], in test [4], in test [5] and in test [6] was over 100 µM each time. The TGI in [7], in [8], in [9] and in [10] was over 100 µM in each case.
With `C#CCn1c(=O)c(Cl)cn(/C(=C/C(=O)OCC)C(=O)OCC)c1=O`, the TGI in [1] stood at 34.3 µM; in test [2] it was 7.37 µM; in test [3] it was 22.8 µM; in test [4] it was 34.2 µM; in test [5], 50.6 µM; in test [6], 8.5 µM. Also, the TGI in [7] is over 70.5 µM; in test [8], 7 µM; in test [9], over 66.7 µM; in [10] it was 12.7 µM.
In the case of `CCSc1nc(N)c2c(-c3ccccc3)c3c(nc2n1)CCC3`, the TGI in test [1], in test [2], in [3], in test [4], in test [5] and in test [6] was over 100 µM in each case. The TGI in test [7] is over 100 µM; in [8], over 100 µM; in test [9], over 100 µM; in test [10], 53 µM.
For the molecule `O=[N+]([O-])c1c2nc3n(c2cc2c1nc1n2CCC1)CCC3`, the TGI in test [1], in test [2], in test [3], in [4], in test [5] and in test [6] was over 100 µM in each case. For the same molecule, the TGI in test [7], in [8], in test [9] and in test [10] was over 100 µM in each case.
As to `COc1ccc2cc(C(=O)NCCCNC(=O)c3ccc4cc(OC)ccc4c3)ccc2c1`, the TGI is over 100 µM in test [1]; over 100 µM in test [2]; over 100 µM in [3]; 50.5 µM in test [4]; over 100 µM in test [5]; over 100 µM in test [6]. Further, the TGI in test [7] was over 100 µM; in test [8], over 100 µM; in [9], 30.6 µM; in [10] it was 7.99 µM.
